# Test results from ChEMBL document CHEMBL3875218, “Bifunctional conjugates with potent inhibitory activity towards cyclooxygenase and histone deacetylase” (Bioorg Med Chem, 2017).
# Calls of active or inactive are those of the source. No cut-off for these calls is given here.
# Key:
# LNCaP [1] = assay: Induction of cell cycle arrest in human LNCAP cells assessed as accumulation at G1 phase at 40 uM after 24 hrs by propidium iodide staining based FACS analysis (reference value: 69.5%); assay type: functional
# LNCaP [2] = assay: Induction of cell cycle arrest in human LNCAP cells assessed as accumulation at S phase at 40 uM after 24 hrs by propidium iodide staining based FACS analysis (reference value: […]); assay type: functional
# LNCaP [3] = assay: Induction of cell cycle arrest in human LNCAP cells assessed as accumulation at G2 phase at 40 uM after 24 hrs by propidium iodide staining based FACS analysis (reference value: 1.08%); assay type: functional
# LNCaP [4] = assay: Induction of cell cycle arrest in human LNCAP cells assessed as accumulation at lesser G1 phase at 40 uM after 24 hrs by propidium iodide staining based FACS analysis (reference value: 1.59%); assay type: functional
# LNCaP [5] = assay: Induction of cell cycle arrest in human LNCAP cells assessed as accumulation at greater G2 phase at 40 uM after 24 hrs by propidium iodide staining based FACS analysis (reference value: 0.20%); assay type: functional
# Histone deacetylase 1 = Histone deacetylase 1 (Homo sapiens, UniProt Q13547); assay: Inhibition of HDAC1 (unknown origin) after 24 hrs by SAMDI mass spectroscopic analysis
# Chain of Histone deacetylase 1 (Q13547 whole entry): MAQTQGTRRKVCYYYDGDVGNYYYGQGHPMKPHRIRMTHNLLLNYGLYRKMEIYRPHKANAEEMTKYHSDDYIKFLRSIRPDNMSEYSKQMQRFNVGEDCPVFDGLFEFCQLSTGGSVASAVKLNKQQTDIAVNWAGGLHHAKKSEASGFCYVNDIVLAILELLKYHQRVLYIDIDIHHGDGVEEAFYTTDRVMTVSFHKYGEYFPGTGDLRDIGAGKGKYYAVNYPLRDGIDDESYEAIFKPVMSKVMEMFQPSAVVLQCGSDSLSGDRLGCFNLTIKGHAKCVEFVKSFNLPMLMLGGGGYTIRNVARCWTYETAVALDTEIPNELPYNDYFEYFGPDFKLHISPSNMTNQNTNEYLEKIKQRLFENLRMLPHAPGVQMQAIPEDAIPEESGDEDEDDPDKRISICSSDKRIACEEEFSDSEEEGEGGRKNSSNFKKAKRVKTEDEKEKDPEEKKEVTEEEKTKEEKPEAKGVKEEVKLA
# Histone deacetylase 2 = Histone deacetylase 2 (Homo sapiens, UniProt Q92769); assay: Inhibition of HDAC2 (unknown origin) after 24 hrs by SAMDI mass spectroscopic analysis
# Chain of Histone deacetylase 2 (Q92769 whole entry): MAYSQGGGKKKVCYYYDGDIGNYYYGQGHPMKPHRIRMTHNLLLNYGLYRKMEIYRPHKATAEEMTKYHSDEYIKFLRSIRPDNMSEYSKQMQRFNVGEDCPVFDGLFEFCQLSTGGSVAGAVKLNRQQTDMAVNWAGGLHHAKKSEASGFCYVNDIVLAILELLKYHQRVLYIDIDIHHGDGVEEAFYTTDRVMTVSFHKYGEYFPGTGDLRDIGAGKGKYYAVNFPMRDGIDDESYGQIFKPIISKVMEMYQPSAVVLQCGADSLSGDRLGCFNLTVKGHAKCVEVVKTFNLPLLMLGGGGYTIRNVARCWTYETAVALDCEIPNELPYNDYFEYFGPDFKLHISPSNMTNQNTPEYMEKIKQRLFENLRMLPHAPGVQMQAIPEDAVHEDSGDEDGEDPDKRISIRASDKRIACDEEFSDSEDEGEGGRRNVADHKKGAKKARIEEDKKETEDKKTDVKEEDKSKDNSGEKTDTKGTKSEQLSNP
# Histone deacetylase 3 = Histone deacetylase 3 (Homo sapiens, UniProt O15379); assay: Inhibition of HDAC3 (unknown origin) after 5 hrs by SAMDI mass spectroscopic analysis
# Chain of Histone deacetylase 3 (O15379 whole entry): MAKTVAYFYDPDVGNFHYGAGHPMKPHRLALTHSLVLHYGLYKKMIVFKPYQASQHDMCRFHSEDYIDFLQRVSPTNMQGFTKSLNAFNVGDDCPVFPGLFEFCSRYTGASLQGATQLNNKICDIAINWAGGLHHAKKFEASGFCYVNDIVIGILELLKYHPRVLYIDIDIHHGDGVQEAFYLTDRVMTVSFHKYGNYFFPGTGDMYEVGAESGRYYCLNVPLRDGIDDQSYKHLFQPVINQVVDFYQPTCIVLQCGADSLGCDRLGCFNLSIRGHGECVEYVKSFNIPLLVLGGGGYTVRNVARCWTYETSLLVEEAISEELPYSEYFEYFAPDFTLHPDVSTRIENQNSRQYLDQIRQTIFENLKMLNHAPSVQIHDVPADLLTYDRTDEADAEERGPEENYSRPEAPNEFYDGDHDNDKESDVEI
# [6] = target: T1, Protein deacetylase HDAC6 (Homo sapiens, UniProt Q9UBN7); assay: Inhibition of HDAC6 (unknown origin) after 20 hrs by SAMDI mass spectroscopic analysis
# T1 sequence (Q9UBN7 whole entry): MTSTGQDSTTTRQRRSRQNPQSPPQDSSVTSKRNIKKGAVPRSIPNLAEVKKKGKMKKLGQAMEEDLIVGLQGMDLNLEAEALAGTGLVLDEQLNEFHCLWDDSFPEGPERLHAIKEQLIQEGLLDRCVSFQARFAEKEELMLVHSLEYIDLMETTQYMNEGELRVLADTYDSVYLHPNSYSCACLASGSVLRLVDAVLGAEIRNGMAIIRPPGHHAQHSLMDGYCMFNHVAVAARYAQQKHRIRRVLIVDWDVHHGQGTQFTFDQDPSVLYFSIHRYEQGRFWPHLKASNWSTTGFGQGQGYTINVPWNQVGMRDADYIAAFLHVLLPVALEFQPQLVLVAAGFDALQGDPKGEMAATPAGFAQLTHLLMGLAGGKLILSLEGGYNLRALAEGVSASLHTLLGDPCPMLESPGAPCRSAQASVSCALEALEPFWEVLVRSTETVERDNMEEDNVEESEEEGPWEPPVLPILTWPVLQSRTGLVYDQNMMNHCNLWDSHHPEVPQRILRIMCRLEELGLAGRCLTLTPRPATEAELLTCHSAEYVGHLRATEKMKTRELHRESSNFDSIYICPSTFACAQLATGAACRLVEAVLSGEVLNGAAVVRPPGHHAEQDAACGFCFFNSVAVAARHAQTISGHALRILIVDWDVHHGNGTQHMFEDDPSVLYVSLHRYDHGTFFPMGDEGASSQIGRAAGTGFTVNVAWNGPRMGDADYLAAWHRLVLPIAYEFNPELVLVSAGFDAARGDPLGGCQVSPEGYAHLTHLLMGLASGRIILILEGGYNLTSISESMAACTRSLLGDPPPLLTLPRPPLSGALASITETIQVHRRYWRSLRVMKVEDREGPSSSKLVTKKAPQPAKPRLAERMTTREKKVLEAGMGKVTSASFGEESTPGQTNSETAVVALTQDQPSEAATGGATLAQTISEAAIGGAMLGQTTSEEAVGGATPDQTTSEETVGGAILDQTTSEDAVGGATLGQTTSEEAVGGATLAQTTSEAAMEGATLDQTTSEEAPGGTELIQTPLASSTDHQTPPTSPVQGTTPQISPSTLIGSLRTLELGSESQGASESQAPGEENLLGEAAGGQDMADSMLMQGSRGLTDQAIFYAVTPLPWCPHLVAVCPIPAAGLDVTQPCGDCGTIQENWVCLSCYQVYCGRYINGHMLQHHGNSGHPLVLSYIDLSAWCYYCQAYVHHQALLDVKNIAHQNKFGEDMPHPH
# Histone deacetylase 8 = target: T2, Histone deacetylase 8 (Homo sapiens, UniProt Q9BY41); assay: Inhibition of HDAC8 (unknown origin) after 2.5 hrs by SAMDI mass spectroscopic analysis
# T2 sequence (Q9BY41 whole entry): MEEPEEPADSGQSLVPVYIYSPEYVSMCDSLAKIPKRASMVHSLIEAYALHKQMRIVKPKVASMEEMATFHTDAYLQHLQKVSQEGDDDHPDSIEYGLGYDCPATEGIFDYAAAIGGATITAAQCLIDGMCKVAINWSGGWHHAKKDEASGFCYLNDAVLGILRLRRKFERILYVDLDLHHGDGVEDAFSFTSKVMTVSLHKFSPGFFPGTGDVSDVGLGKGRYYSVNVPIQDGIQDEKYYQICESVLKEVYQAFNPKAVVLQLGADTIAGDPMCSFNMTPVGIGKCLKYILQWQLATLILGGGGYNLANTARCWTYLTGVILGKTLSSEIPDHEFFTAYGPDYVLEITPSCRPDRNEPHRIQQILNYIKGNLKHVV
# [7] = target: T3, Prostaglandin G/H synthase 2 (Homo sapiens) (UniProt P35354); assay: Inhibition of recombinant human COX2 at 10 uM using arachidonic acid as substrate preincubated for 15 mins followed by substrate addition for 2 mins by Cayman based fluorescence assay
# T3 sequence (whole entry): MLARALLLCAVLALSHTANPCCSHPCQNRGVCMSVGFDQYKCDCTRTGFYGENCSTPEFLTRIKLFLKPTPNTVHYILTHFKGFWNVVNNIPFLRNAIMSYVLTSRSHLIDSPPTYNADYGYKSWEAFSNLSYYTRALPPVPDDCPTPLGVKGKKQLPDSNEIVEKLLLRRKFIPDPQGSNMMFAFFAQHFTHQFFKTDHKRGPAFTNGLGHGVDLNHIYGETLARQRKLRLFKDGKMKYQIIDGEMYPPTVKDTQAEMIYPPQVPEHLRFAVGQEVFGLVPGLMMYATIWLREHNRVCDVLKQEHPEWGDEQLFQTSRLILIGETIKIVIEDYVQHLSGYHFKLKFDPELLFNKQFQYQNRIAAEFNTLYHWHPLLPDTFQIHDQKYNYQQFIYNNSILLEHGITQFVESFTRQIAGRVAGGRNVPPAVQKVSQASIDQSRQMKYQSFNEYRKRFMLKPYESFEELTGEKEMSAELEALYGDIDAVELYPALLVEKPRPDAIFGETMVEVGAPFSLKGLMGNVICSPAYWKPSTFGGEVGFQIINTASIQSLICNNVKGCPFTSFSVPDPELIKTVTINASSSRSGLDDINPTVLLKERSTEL
# [8] = Cytotoxicity against human HCT116 cells assessed as cell growth inhibition after 72 hrs by MTT assay; assay type: functional, cell-based; conditions: HCT-116, 72 h
# [9] = Cytotoxicity against human MCF7 cells assessed as cell growth inhibition at 100 uM after 72 hrs by MTT assay; assay type: functional; conditions: MCF7, 72 h, read-out: GI
# [10] = Cytotoxicity against human MCF7 cells assessed as cell growth inhibition after 72 hrs by MTT assay; assay type: functional, cell-based; conditions: MCF7, 72 h
# [11] = Cytotoxicity against human A549 cells assessed as cell growth inhibition after 72 hrs by MTT assay; assay type: functional, cell-based; conditions: A549, 72 h
# [12] = Cytotoxicity against human LNCAP cells assessed as cell growth inhibition after 72 hrs by MTT assay; assay type: functional, cell-based
# [13] = Cytotoxicity against human DU145 cells assessed as cell growth inhibition after 72 hrs by MTT assay; assay type: functional, cell-based; conditions: DU-145, 72 h
# [14] = Cytotoxicity against African green monkey Vero cells assessed as cell growth inhibition after 72 hrs by MTT assay; assay type: toxicity, cell-based; conditions: African green monkey (Chlorocebus sabaeus)
# [15] = Cytotoxicity against human HeLa cells assessed as cell growth inhibition after 72 hrs by MTT assay
# [16] = target: T4, Protein deacetylase HDAC6 (Homo sapiens) (UniProt Q9UBN7); assay: Inhibition of HDAC6 in human LNCAP cells assessed as acetylated tubulin accumulation in cytosol at 1.5 uM after 24 hrs by Western blot analysis; assay type: cell-based
# T4 sequence (whole entry): T1 sequence (Q9UBN7 whole entry)
# LNCaP [17] = assay: Inhibition of class 1 HDAC in human LNCAP cells assessed as acetylated histone H4 accumulation at 1.5 uM after 24 hrs by Western blot analysis; assay type: cell-based
# LNCaP [18] = assay: Inhibition of HDAC in human LNCAP cells assessed as down regulation of COX2 expression at 1.5 uM after 24 hrs by Western blot analysis; assay type: cell-based
# LNCaP [19] = assay: Induction of cell cycle arrest in human LNCAP cells assessed as accumulation at lesser G1 phase at 2.5 uM after 24 hrs by propidium iodide staining based FACS analysis (reference value: 1.59%); assay type: functional
# LNCaP [20] = assay: Induction of cell cycle arrest in human LNCAP cells assessed as accumulation at G1 phase at 2.5 uM after 24 hrs by propidium iodide staining based FACS analysis (reference value: 69.5%); assay type: functional
# LNCaP [21] = assay: Induction of cell cycle arrest in human LNCAP cells assessed as accumulation at S phase at 2.5 uM after 24 hrs by propidium iodide staining based FACS analysis (reference value: […]); assay type: functional
# LNCaP [22] = assay: Induction of cell cycle arrest in human LNCAP cells assessed as accumulation at G2 phase at 2.5 uM after 24 hrs by propidium iodide staining based FACS analysis (reference value: 1.08%); assay type: functional
# LNCaP [23] = assay: Induction of cell cycle arrest in human LNCAP cells assessed as accumulation at greater G2 phase at 2.5 uM after 24 hrs by propidium iodide staining based FACS analysis (reference value: 0.20%); assay type: functional
# BEAS2B = conditions: Homo sapiens, at 1 µM
# Description: Inhibition of HDAC in human BEAS2B cells assessed as reduction of NTHi-induced NFkappaB activation at 1 uM preincubated for 1 hr followed by NTHi stimulation for 5 hrs by luciferase reporter gene assay
# LNCaP [24] = conditions: Homo sapiens, at 10 µM
# Description: Inhibition of HDAC in human LNCAP cells assessed as down regulation of androgen receptor expression at 10 uM after 24 hrs by Western blot analysis
# [25] = target: T5, Prostaglandin G/H synthase 2 (Homo sapiens, UniProt P35354); assay: Inhibition of recombinant human COX2 using arachidonic acid as substrate preincubated for 15 mins followed by substrate addition for 2 mins by Cayman based fluorescence assay
# T5 sequence (P35354 whole entry): T3 sequence (whole entry)
IC50 (Histone deacetylase 1) [µM],IC50 (Histone deacetylase 2) [µM],IC50 (Histone deacetylase 3) [µM],IC50 [6] [µM],IC50 (Histone deacetylase 8) [µM],inhibition [7] [%],SMILES,Activity (LNCaP [1]) [%],Activity (LNCaP [2]) [%],Activity (LNCaP [4]) [%],Activity (LNCaP [5]) [%],IC50 [8] [µM],inhibition of growth at 100 µM [9] [%],Activity (LNCaP [19]) [%],Activity (LNCaP [20]) [%],Activity (LNCaP [21]) [%],Activity (LNCaP [22]) [%],Activity (LNCaP [23]) [%],inhibition (BEAS2B),also measured
0.111,0.302,0.059,0.022,0.116,40.6,COc1ccc2c(c1)c(CC(=O)O)c(C)n2Cc1ccc(-c2cn(CCCCCCC(=O)NO)nn2)cc1,,,,,9.9,47.8,,,,,,,
0.089,0.407,0.035,0.01,0.135,50.8,COC(=O)Cc1c(C)n(Cc2ccc(-c3cn(CCCCCCC(=O)NO)nn3)cc2)c2ccc(OC)cc12,,,,,1.67,,0.053,46.7,47.1,1.87,2.06,Active,IC50 [10]: 9.61 µM; IC50 [11]: 8.22 µM; IC50 [12]: 1.35 µM; IC50 [13]: 8.17 µM; IC50 at 72 h [14]: 5.82 µM; IC50 [15]: 4.02 µM; inhibition [16]: Active; inhibition (LNCaP [17]): Active; inhibition (LNCaP [18]): Active

# More lines, now with the values behind:
SMILES,IC50 (Histone deacetylase 1) [µM],IC50 (Histone deacetylase 2) [µM],IC50 (Histone deacetylase 3) [µM],IC50 [6] [µM],IC50 (Histone deacetylase 8) [µM],inhibition [7] [%],Activity (LNCaP [1]) [%],Activity (LNCaP [2]) [%],Activity (LNCaP [4]) [%],Activity (LNCaP [5]) [%],IC50 [8] [µM],inhibition of growth at 100 µM [9] [%],Activity (LNCaP [19]) [%],Activity (LNCaP [20]) [%],Activity (LNCaP [21]) [%],Activity (LNCaP [22]) [%],Activity (LNCaP [23]) [%],inhibition (BEAS2B),also measured
Cc1ccc(-c2cc(C(F)(F)F)nn2-c2ccc(S(N)(=O)=O)cc2)cc1 [CELECOXIB],,,,,,,69.2,28.4,0.59,0.35,,,,,,,,,Activity (LNCaP [3]): 0.85%
COc1ccc2c(c1)c(CC(=O)O)c(C)n2C(=O)c1ccc(Cl)cc1 [INDOMETHACIN],,,,,,,71.5,23.5,2.81,0.88,,5.2,,,,,,,inhibition (LNCaP [24]): Active
Cc1ccc(-c2cc(C(=O)NCCCCCCC(=O)NO)nn2-c2ccc(S(C)(=O)=O)cc2)cc1,0.261,,0.338,0.05,0.345,60.2,,,,,,,0.029,85.9,13.8,0.5,0.21,Active,IC50 [25]: 4.44 µM
